Structures are written as SMILES. ≈ marks a conversion by molar mass, not a printed value. Where “and” joins values, the source holds several entries; their conditions need not be identical. Equal entries are not always repeated. Calls of active or inactive are those of the source. No cut-off for these calls is given here.

Data set [1] in a line: (§1) Cytotoxicity against human A549 cells. In kind it is toxicity, cell-based. The following applies: A549 cells.
In data set [2] the test system is Staphylococcus aureus. As to the kind of experiment: Antibacterial activity against Staphylococcus aureus. The class given is functional.
The test system of data set [3] is Pseudomonas aeruginosa. As to the kind of experiment: Antibacterial activity against Pseudomonas aeruginosa PAO1 harbouring delta6 mutant. In kind it is functional.
Data set [4] deals with Escherichia coli. As to the kind of experiment: Antibacterial activity against wild type Escherichia coli harbouring pore. In kind it is functional.
For data set [5], the system named is Pseudomonas aeruginosa. As to the kind of experiment: Antibacterial activity against Pseudomonas aeruginosa PAO1. The class given is functional.
Data set [6] relates to Pseudomonas aeruginosa. As to the kind of experiment: Antibacterial activity against Pseudomonas aeruginosa PAO1 harbouring delta6 mutant with pore. In kind it is functional.
Data set [7] deals with Escherichia coli. As to the kind of experiment: Antibacterial activity against […] Escherichia coli harbouring TolC-deficient mutant. In kind it is functional.
Data set [8] has as its system Escherichia coli. As to the kind of experiment: Antibacterial activity against Escherichia coli. The class given is functional.
The subject of data set [9] is Staphylococcus aureus. As to the kind of experiment: Antibacterial activity against Staphylococcus aureus ATCC 217. In kind it is functional.
The test system of data set [10] is Staphylococcus aureus. As to the kind of experiment: Antibacterial activity against Staphylococcus aureus ATCC 223. The class given is functional.
Data set [11] concerns Staphylococcus aureus. As to the kind of experiment: Antibacterial activity against Staphylococcus aureus ATCC 711. In kind it is functional.
Data set [12] concerns Staphylococcus aureus. As to the kind of experiment: Bacteriostatic activity against Staphylococcus aureus ATCC 25923 at MIC measured after 5 to 40 hrs by time kill assay. The class given is functional, organism-based. The following applies: time 5-40 hrs.
The subject of data set [13] is Escherichia coli. As to the kind of experiment: Antibacterial activity against Escherichia coli BW25113. The class given is functional.
The subject of data set [14] is A549. The description is as §1. In kind it is toxicity, cell-based. The following applies: a549.
Data set [15] relates to Staphylococcus aureus. As to the kind of experiment: Antibacterial activity against Staphylococcus aureus ATCC 716. The class given is functional.
In data set [16] the test system is Staphylococcus aureus. As to the kind of experiment: Antibacterial activity against Staphylococcus aureus ATCC 216. The class given is functional.
Data set [17] deals with Staphylococcus aureus. As to the kind of experiment: Antibacterial activity against Staphylococcus aureus ATCC 701. In kind it is functional.
The subject of data set [18] is Acinetobacter baumannii. As to the kind of experiment: Antibacterial activity against Acinetobacter baumannii ATCC 17978. The class given is functional.
Data set [19] concerns Staphylococcus aureus. As to the kind of experiment: Bactericidal activity against Staphylococcus aureus ATCC 25923 at 16 times MIC measured after 9.5 to 40 hrs by time kill assay. In kind it is functional, organism-based. The following applies: time 9.5-40 hrs.
The subject of data set [20] is Staphylococcus aureus. As to the kind of experiment: Antibacterial activity against Staphylococcus aureus ATCC 219. In kind it is functional.
In data set [21] the test system is Staphylococcus aureus. As to the kind of experiment: Antibacterial activity against Staphylococcus aureus ATCC 215. In kind it is functional.
Data set [22] concerns Staphylococcus aureus. As to the kind of experiment: Bacteriostatic activity against Staphylococcus aureus ATCC 25923 at 4 times MIC measured after 5 to 40 hrs by time kill assay. The conditions noted are these: time 5-40 hrs. The class given is functional, organism-based.
The test system of data set [23] is Pseudomonas aeruginosa. As to the kind of experiment: Antibacterial activity against Pseudomonas aeruginosa PAO1 harbouring pore. The class given is functional.
The test system of data set [24] is Escherichia coli. As to the kind of experiment: Antibacterial activity against […] Escherichia coli harbouring TolC-deficient mutant with pore. In kind it is functional.
The test system of data set [25] is Staphylococcus aureus. As to the kind of experiment: Antibacterial activity against Staphylococcus aureus ATCC 25923. In kind it is functional.
Where [26] appears, read: Staphylococcus aureus, read-out: MIC80.
Where [27] appears, read: Staphylococcus aureus, read-out: MIC.

Turning to `Cc1cc(Cl)cc2sc(N(CCCn3ccnc3)CS(=O)(=O)c3ccco3)nc12`, it took 43.2 µM to reach half-maximal cytotoxicity in data set [1] (CC50). The MIC80 in data set [2] (setting [26]) was 3.9 µM (≈ 1.76 µg/mL).
In the case of `CC[C@H]1OC(=O)[C@H](C)[C@@H](O[C@H]2C[C@@](C)(OC)[C@@H](O)[C@H](C)O2)[C@H](C)[C@@H](O[C@@H]2O[C@H](C)C[C@H](N(C)C)[C@H]2O)[C@](C)(O)C[C@@H](C)C(=O)[C@H](C)[C@@H](O)[C@]1(C)O` [ERYTHROMYCIN], the MIC in data set [3] was 8 µM (≈ 5.87 µg/mL); in data set [4] it was 4 µM (≈ 2.94 µg/mL); in [5], 128 µM (≈ 93.9 µg/mL); in [6] it was 0.063 µM (≈ 0.0462 µg/mL); in data set [7], 2 µM (≈ 1.47 µg/mL); in data set [8], 64 µM (≈ 47 µg/mL).
Take `Cc1cc(Cl)cc2sc(N(CCCn3ccnc3)C(=O)c3ccco3)nc12`: the MIC is 6.6 µM (≈ 2.65 µg/mL) in [9]; 6.6 µM (≈ 2.65 µg/mL) in data set [10]; over 200 µM in data set [3]; 6.6 µM (≈ 2.65 µg/mL) in data set [11]; over 100 µM in [13]; 4.4 µM (≈ 1.76 µg/mL) in data set [15]. Further, the MIC in data set [16] was 4.4 µM (≈ 1.76 µg/mL); in data set [17], 4.4 µM (≈ 1.76 µg/mL); in data set [18], over 100 µM; in data set [20] it was 2.9 µM (≈ 1.16 µg/mL); in [21] it was 14.8 µM (≈ 5.93 µg/mL); in [5], over 100 µM. In addition, the MIC in data set [6] came to 6.25 µM (≈ 2.51 µg/mL). The result in [12], in data set [19] and in [22] was Active. Also, the CC50 in data set [1] turned out to be 34.1 µM; in data set [14], 12 µM.
As for `Cc1cc(Cl)cc2sc(N(CCCn3ccnc3)C(=O)CN)nc12`, the MIC in data set [2] (setting [27]) was 100 µM (≈ 36.4 µg/mL).
The compound `Cc1cc(Cl)cc2sc(NC(=O)c3ccco3)nc12` returned a CC50 in data set [1] of 17.9 µM. The minimum inhibitory concentration (MIC) in data set [2] (setting [27]) was over 100 µM.
As for `Cc1cc(Cl)cc2sc(N(CCCn3ccnc3)Cc3ccccc3)nc12`, the MIC was over 200 µM in data set [3] and 3.2 µM (≈ 1.27 µg/mL) in data set [6]. This compound showed a CC50 in [1] of 33.3 µM. Also, the MIC80 in [2] (setting [26]) is 5.9 µM (≈ 2.34 µg/mL).
`Cc1cc(Cl)cc2sc(N(CCCn3cc[n+](C)c3)C(=O)c3ccco3)nc12`: the MIC80 in data set [2] is 29.6 µM and 13.2 µM.
On to `Cc1cc(Cl)cc2sc(N(CCCn3ccnc3)CS(=O)(=O)c3ccccc3)nc12`, for which, in data set [1], the midpoint of cytotoxicity, the CC50, lay at 23.3 µM. For the same compound, the MIC80 in data set [2] (setting [26]) came out at 2.6 µM (≈ 1.2 µg/mL).
On to `Cc1cc(Cl)cc2sc(N(CC3CCC(N)CC3)C(=O)c3ccco3)nc12` (stereo unspecified), for which the MIC is over 200 µM in data set [23]; 25 µM (≈ 10.1 µg/mL) in [24]; 100 µM (≈ 40.4 µg/mL) in data set [4]; over 200 µM in data set [5]; 12.5 µM (≈ 5.05 µg/mL) in data set [6]; 50 µM (≈ 20.2 µg/mL) in data set [7]. In data set [8], this compound yielded an MIC of over 200 µM. The MIC80 stood at 29.6 µM (≈ 12 µg/mL) in data set [2] and 19.8 µM (≈ 8 µg/mL) in [2] (setting [26]).
Turning to `NCc1cccc2sc(N(CCCn3ccnc3)C(=O)c3ccco3)nc12`, the MIC in data set [3] is 100 µM (≈ 38.1 µg/mL); in [23], over 200 µM; in [24], 100 µM (≈ 38.1 µg/mL); in data set [2] (setting [27]) it was 66.7 µM (≈ 25.4 µg/mL); in data set [4], over 200 µM; in [5] it was over 200 µM. In addition, the minimum inhibitory concentration (MIC) was 100 µM (≈ 38.1 µg/mL) in data set [6], 100 µM (≈ 38.1 µg/mL) in [7] and over 200 µM in data set [8].
Turning to `Cc1cc(Cl)cc2sc(N(CCCn3ccnc3)C(=O)C3CCC3)nc12`, in data set [14], the CC50 was 44.6 µM. Also, the minimum inhibitory concentration (MIC) in [2] (setting [27]) was found to be 2.6 µM (≈ 1.01 µg/mL).
On to `NCc1ccc2nc(N(CCCn3ccnc3)C(=O)c3ccco3)sc2c1`, for which the MIC in data set [2] (setting [27]) is over 100 µM.
Turning to `Cc1cc(Cl)cc2sc(N(CCCn3ccnc3)C(=O)C(C)C)nc12`, the MIC in [3] is 50 µM (≈ 18.8 µg/mL); in [23] it was over 200 µM; in data set [24] it was 3.2 µM (≈ 1.21 µg/mL); in data set [2], 2.6 µM (≈ 0.98 µg/mL); in data set [2] (setting [27]), 3.9 µM (≈ 1.47 µg/mL); in data set [4], over 100 µM. For the same compound, the MIC in data set [5] was over 200 µM; in [6], 0.78 µM (≈ 0.294 µg/mL); in data set [7], 3.2 µM (≈ 1.21 µg/mL); in data set [8], over 100 µM. Further, it took 46.4 µM to reach half-maximal cytotoxicity in data set [1] (CC50).
Consider `Cc1cc(C(=O)N(CCCn2ccnc2)c2nc3c(C)cc(Cl)cc3s2)oc1C`, for which the CC50 in data set [14] was found to be 52.1 µM. Besides, the MIC in [2] (setting [27]) was 3.9 µM (≈ 1.67 µg/mL).
Compound `Cc1cc(Cl)cc2sc(NCCCn3ccnc3)nc12` came in with a CC50 in [1] of 111 µM. For the same compound, in [2] (setting [27]), the MIC came out at 19.8 µM (≈ 6.08 µg/mL).
In the same order, the values of `O=C(c1ccco1)N(CCCn1ccnc1)c1nc2c(F)cc(F)cc2s1` are 93.7 µM and 16.5 µM (≈ 6.41 µg/mL).
In [25], `O=C(O)c1cn(C2CC2)c2cc(N3CCNCC3)c(F)cc2c1=O` [CIPROFLOXACIN] returned an MIC of under 0.9 µM.
In the case of `Cc1nc(Cl)cc2sc(N(CCCn3ccnc3)C(=O)c3ccco3)nc12`, the MIC in data set [2] (setting [27]) was over 100 µM.

A word on the CC50: it is the concentration giving 50% cytotoxicity. Read a high CC50 as lower toxicity to the cells. The MIC80 is an inhibitory concentration at the 80% level, which refers to growth in some studies and to a panel of isolates in others. As usually defined, the MIC is the lowest concentration found to suppress growth.

The record behind these values is ChEMBL document CHEMBL5257105, “Identification and structure-activity relationships for a series of N, N-disubstituted 2-aminobenzothiazoles as potent inhibitors of S. aureus” (Bioorg Med Chem Lett, 2023).
